The results in this text go back to ChEMBL document CHEMBL1201862, “PubChem BioAssay data set” (2004).

The structures appear in SMILES notation.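 Briefly, cells in 96-well plates were exposed to five compound concentrations for 48 h, and endpoints were estimated by linear interpolation. GI50 is the concentration that inhibits growth by half.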 Calls of active or inactive are those of the source. No stated cut-off is given here; in the data, active = GI50 up to about 1.1 µM and inactive = higher.

Some test systems named below: DMS-273; HCC 2998; HOP-62; IGROV-1; LOX IMVI; M14; MOLT-4; Malme-3M; NCI-H23; NCI-H460; OVCAR-3; OVCAR-8; RXF 393; SF-539; SK-MEL-5; U-251; UACC-62; M19-MEL.
Holding throughout (assay): NCI tumour cell line growth inhibition, 48 h

On to `COc1cc2c(c(OC)c1OC)-c1ccc(OC)c(=O)cc1[C@@H](N(C)C=O)CC2`, for which the GI50 was 0.0116 µM (active) in the assay on DMS-273; 0.0168 µM (active) in the assay with HCC 2998; < 0.0164 µM (active) in the assay on HOP-62; 0.0262 µM (active) in the assay with IGROV-1; 0.0249 µM (active) in the assay with LOX IMVI; < 0.0122 µM (active) with M14. For the same compound, the GI50 in the assay with MOLT-4 was 0.0212 µM (active); in the assay on Malme-3M, 0.0184 µM (active); in the assay with NCI-H23 it was 0.0168 µM (active); with NCI-H460, < 0.0179 µM (active); with OVCAR-3, 0.0112 µM (active); with OVCAR-8, 0.0218 µM (active). In addition, the GI50 in the assay on RXF 393 was 0.0161 µM (active); with SF-539 it was 0.0148 µM (active); in the assay with SK-MEL-5, < 0.01 µM (active); in the assay on U-251 it was < 0.0163 µM (active); with UACC-62, 0.0177 µM (active).
Turning to `C(=N\OCc1ccccc1)/c1ncccc1C1OCCO1`, the GI50 in the assay with DMS-273, in the assay with HOP-62, in the assay with IGROV-1, in the assay with LOX IMVI, in the assay with M14 and in the assay with M19-MEL was > 100 µM (inactive) in each case. Moreover, the GI50 with MOLT-4, in the assay with Malme-3M, in the assay on NCI-H23, in the assay on NCI-H460, with OVCAR-3 and in the assay on OVCAR-8 was > 100 µM (inactive) in each case. Also, the GI50 in the assay with RXF 393, in the assay on SF-539, with SK-MEL-5, with U-251 and in the assay with UACC-62 was > 100 µM (inactive) in each case.
As for `CC(C)CCC[C@@H](C)[C@H]1CC[C@H]2[C@@H]3CC=C4CC(OCCCCN(O)CCCSC5OC(CO)C(O)C(O)C5O)CC[C@]4(C)[C@H]3CC[C@]12C` (stereo partly drawn), the GI50 in the assay on DMS-273 is 32 µM (inactive); in the assay on HOP-62, 94.2 µM (inactive); in the assay with IGROV-1 it was 22.1 µM (inactive); in the assay with LOX IMVI, 21.8 µM (inactive); in the assay on M14 it was 25 µM (inactive); in the assay with M19-MEL it was > 100 µM (inactive). For the same compound, the GI50 in the assay on MOLT-4 is 34 µM (inactive); with NCI-H23, 45.2 µM (inactive); with NCI-H460, 39.9 µM (inactive); with OVCAR-8 it was 74.1 µM (inactive); in the assay on RXF 393, 79.3 µM (inactive); in the assay with SF-539 it was 18.8 µM (inactive). Also, the figures for the GI50 in the assay with SK-MEL-5, with U-251 and with UACC-62 were 70.5 µM (inactive), 30.2 µM (inactive) and > 100 µM (inactive), respectively.
For `OCC1OC(c2nc(C3=NCCCN3)cs2)C(O)C1O` (stereo not drawn), the GI50 with DMS-273, in the assay on HCC 2998, in the assay with HOP-62, in the assay on IGROV-1, in the assay with LOX IMVI and in the assay on M14 was > 100 µM (inactive) each time. Further, the GI50 in the assay on M19-MEL is > 100 µM (inactive); in the assay with MOLT-4 it was > 100 µM (inactive); with Malme-3M it was > 100 µM (inactive); with NCI-H23 it was > 100 µM (inactive); in the assay with NCI-H460 it was > 100 µM (inactive); with OVCAR-3, > 10 µM (inactive). Moreover, the GI50 with OVCAR-8, with SF-539, in the assay on U-251 and with UACC-62 was > 100 µM (inactive) throughout.
Regarding `Cl[Si]1(Cl)Oc2ccccc2O[Si](Cl)(Cl)Oc2ccccc2O1`, the GI50 in the assay with DMS-273 was 7.38 µM (inactive); in the assay on HCC 2998, 20.7 µM (inactive); in the assay on HOP-62, 26.2 µM (inactive); in the assay on IGROV-1, 28.6 µM (inactive); in the assay with LOX IMVI, 9.14 µM (inactive); with M14, 15.5 µM (inactive). The GI50 was 12 µM (inactive) in the assay on M19-MEL; 3.25 µM (inactive) in the assay with MOLT-4; 18.7 µM (inactive) in the assay with Malme-3M; 14.8 µM (inactive) in the assay on NCI-H23; 6.9 µM (inactive) in the assay on NCI-H460; 21.7 µM (inactive) in the assay on OVCAR-3. In addition, the GI50 with OVCAR-8 is 30.5 µM (inactive); with SF-539, 20.3 µM (inactive); with SK-MEL-5, 12.4 µM (inactive); with U-251 it was 28.1 µM (inactive); in the assay on UACC-62 it was 5.08 µM (inactive).
Turning to `O=c1c2cc(Br)ccc2nc(CCl)n1-c1ccc(O)c([N+](=O)[O-])c1`, the GI50 with HCC 2998 was 19.9 µM (inactive); in the assay on HOP-62, 20.9 µM (inactive); in the assay on IGROV-1 it was 24 µM (inactive); with LOX IMVI, 19 µM (inactive); in the assay on M14, 22.3 µM (inactive); in the assay on M19-MEL, 19.8 µM (inactive). The GI50 is 23.1 µM (inactive) in the assay with MOLT-4; 17.5 µM (inactive) in the assay on Malme-3M; 16.7 µM (inactive) in the assay with NCI-H23; 34.1 µM (inactive) with NCI-H460; 18.2 µM (inactive) in the assay with OVCAR-3; 19.9 µM (inactive) with OVCAR-8. Besides, the GI50 in the assay with RXF 393 is 12.9 µM (inactive); with SF-539, 19.2 µM (inactive); in the assay on SK-MEL-5, 15.9 µM (inactive); with U-251 it was 38.9 µM (inactive); with UACC-62, 26.6 µM (inactive).
Take `C/C=C(\C)c1cc(O)c(C)c2c1Oc1cc(O)c(Cl)c(C)c1C(=O)O2`: the GI50 in the assay on DMS-273 is 34.1 µM (inactive); in the assay with HCC 2998, 13 µM (inactive); in the assay with HOP-62 it was 27.7 µM (inactive); in the assay with LOX IMVI, 17.6 µM (inactive); with M14 it was 20.1 µM (inactive); in the assay on M19-MEL, 34 µM (inactive). Moreover, the GI50 in the assay with NCI-H23 is 18.9 µM (inactive); in the assay with NCI-H460, 20 µM (inactive); in the assay with OVCAR-8 it was 21.4 µM (inactive); in the assay on RXF 393 it was 18.8 µM (inactive); in the assay with SF-539, 20 µM (inactive); in the assay with SK-MEL-5 it was 13.9 µM (inactive). In addition, the GI50 in the assay on U-251 was 23.4 µM (inactive).
Consider `CCOC(=O)C1(Br)C(c2ccccc2)NC(=O)NC1(C)Br` (stereo not drawn), for which the GI50 with DMS-273 was 90.2 µM (inactive); with HCC 2998, > 100 µM (inactive); in the assay with HOP-62, > 100 µM (inactive); in the assay with IGROV-1, 54.6 µM (inactive); with LOX IMVI, 38.3 µM (inactive); in the assay with M14 it was 82.8 µM (inactive). For the same compound, the GI50 with M19-MEL was 64.1 µM (inactive); with MOLT-4 it was 73.3 µM (inactive); with Malme-3M, > 100 µM (inactive); in the assay on NCI-H23 it was 67.3 µM (inactive); in the assay on NCI-H460, > 100 µM (inactive); in the assay with OVCAR-3, 62.5 µM (inactive). Further, the GI50 is 89.3 µM (inactive) in the assay with OVCAR-8; 25.1 µM (inactive) in the assay on RXF 393; 57.4 µM (inactive) with SK-MEL-5; 16.4 µM (inactive) with U-251; 52.8 µM (inactive) with UACC-62.
For `CN(C)c1nc(N(C)c2ccccc2)[s+]s1`, the GI50 is 47.2 µM (inactive) in the assay on DMS-273; > 100 µM (inactive) in the assay with HCC 2998; > 100 µM (inactive) in the assay with HOP-62; > 100 µM (inactive) with IGROV-1; 32.4 µM (inactive) in the assay with M14; 18.9 µM (inactive) in the assay with M19-MEL. The GI50 with Malme-3M was 60.4 µM (inactive); in the assay with NCI-H23, 65.6 µM (inactive); in the assay on NCI-H460, 16.7 µM (inactive); with OVCAR-8, 66.7 µM (inactive); in the assay on RXF 393 it was > 100 µM (inactive); in the assay with SF-539, 57.9 µM (inactive). Moreover, the GI50 in the assay with SK-MEL-5 is 36.5 µM (inactive); in the assay on U-251, 31.6 µM (inactive); with UACC-62 it was 12.3 µM (inactive).
Consider `CC(C)N(C(=O)C12C3C4C5(C#N)C3C1(C#N)C5C42C#N)C(C)C` (stereo not drawn), for which the GI50 in the assay on DMS-273, in the assay on HCC 2998, in the assay on HOP-62, with IGROV-1, in the assay with LOX IMVI and in the assay on M19-MEL was > 100 µM (inactive) in each case. In addition, the GI50 in the assay with MOLT-4, in the assay with Malme-3M, in the assay on NCI-H23, in the assay with NCI-H460, in the assay on OVCAR-3 and in the assay with OVCAR-8 was > 100 µM (inactive) in each case. The GI50 with SF-539, in the assay with SK-MEL-5, in the assay on U-251 and in the assay on UACC-62 was > 100 µM (inactive) throughout.
For the compound `Cc1ccc([N+](=O)[O-])cc1NC(=O)C(=O)Cc1cc(=O)oc2cc(O)ccc12`, the GI50 is > 100 µM (inactive) in the assay with HCC 2998; > 100 µM (inactive) in the assay with HOP-62; > 100 µM (inactive) in the assay on IGROV-1; 26.6 µM (inactive) in the assay on LOX IMVI; > 100 µM (inactive) in the assay on M14; > 100 µM (inactive) with M19-MEL. Besides, the GI50 was > 100 µM (inactive) with MOLT-4; > 100 µM (inactive) in the assay on Malme-3M; > 100 µM (inactive) in the assay with NCI-H23; 83.9 µM (inactive) with NCI-H460; > 100 µM (inactive) in the assay on OVCAR-3; > 100 µM (inactive) in the assay on OVCAR-8. Besides, the GI50 in the assay with RXF 393 is 28.1 µM (inactive); in the assay on SF-539, > 100 µM (inactive); with SK-MEL-5 it was > 100 µM (inactive); in the assay on U-251, > 100 µM (inactive); with UACC-62, > 100 µM (inactive).
Regarding `CCN1CCC(O)(/C=C/c2ccc(Cl)cc2)C(C(=O)/C=C/c2ccc(Cl)cc2)C1` (stereo not drawn), the GI50 is 28.4 µM (inactive) in the assay on DMS-273; 18.4 µM (inactive) in the assay on HCC 2998; > 100 µM (inactive) with HOP-62; 27.1 µM (inactive) in the assay on IGROV-1; 16.2 µM (inactive) with LOX IMVI; 34.6 µM (inactive) in the assay with M14. Also, the GI50 in the assay on M19-MEL was 29.9 µM (inactive); with MOLT-4, 23.9 µM (inactive); in the assay on Malme-3M, > 100 µM (inactive); in the assay on NCI-H23 it was 20.2 µM (inactive); in the assay with NCI-H460 it was 28 µM (inactive); in the assay on OVCAR-3, 18.9 µM (inactive). Besides, the GI50 was 24.4 µM (inactive) in the assay on OVCAR-8, 13.5 µM (inactive) in the assay with SK-MEL-5, 19 µM (inactive) in the assay on U-251 and 17.3 µM (inactive) in the assay on UACC-62.
